The target of this experiment is human LPAR1 (Homo sapiens, UniProt Q92633). Briefly: LPAR1 intracellular calcium mobilization assay (antagonist mode). (Calcium assays in cells follow changes in intracellular calcium, usually with a dye or a luminescent sensor.)

By EC50 is commonly meant the midpoint of the concentration-response curve.

Sequence of human LPAR1 (Q92633 whole entry): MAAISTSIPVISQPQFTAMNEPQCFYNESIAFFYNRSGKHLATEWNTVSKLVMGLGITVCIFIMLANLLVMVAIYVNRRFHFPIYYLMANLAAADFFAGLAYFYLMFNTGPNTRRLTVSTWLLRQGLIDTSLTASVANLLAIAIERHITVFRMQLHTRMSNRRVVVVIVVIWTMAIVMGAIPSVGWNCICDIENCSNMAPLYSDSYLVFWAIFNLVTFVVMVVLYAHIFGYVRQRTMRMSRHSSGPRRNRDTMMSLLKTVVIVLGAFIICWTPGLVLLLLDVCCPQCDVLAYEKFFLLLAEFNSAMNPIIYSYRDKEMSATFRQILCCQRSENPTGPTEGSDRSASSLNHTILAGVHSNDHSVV
Protocol: In vitro LPAR1 activity was measured in an intracellular calcium mobilization assay.
Prior to testing cell media were aspirated from the cells and replaced with 20 μL Calcium Dye Loading Buffer (DiscoverX Calcium NoWash^PLUS Assay Kit cat #90-0091) and 2.5 mM Probenecid (Sigma Aldrich cat #P8761, prepared fresh) in HBSS/20 mM Hepes for 60 min at 37° C.
For agonist dose curves, cells were removed from the incubator after dye loading and 10 μL HBSS/20 mM Hepes including 3× vehicle was added. Cells were incubated for 30 min at room temperature in the dark to equilibrate plate temperatures. An intermediate LPA dilution series was prepared in assay buffer to generate 4× stock. Calcium mobilization was monitored on a FLIPR Tetra (MDS, San Jose, Calif.) for 2 min and 10 μL 4×LPA in HBSS/20 mM Hepes was added to the cells 5 s into the assay.
An intermediate antagonist dilution series was prepared as 3× samples in assay buffer. After dye loading, cells were removed from the incubator and 10 μL 3× antagonist was added. Cells were incubated for 30 min at room temperature in the dark to equilibrate plate temperatures. The final vehicle (DMSO) concentration was 1%. Compound antagonist activities was measured on a FLIPR Tetra. Calcium mobilization was monitored for 2 min and 10 μL EC80 agonist in HBSS/20 mM Hepes was added to the cells 5 s into the assay. Compound activity was analyzed using CBIS data analysis suite (ChemInnovation Software, San Diego, Calif.).

Regarding `C[C@@H](OC(=O)Nc1c(-c2ccc(NS(C)(=O)=O)c(C(F)F)n2)nnn1C)c1ccccc1` [Compound 150, (R)-1-phenylethyl (4-(6-(difluoromethyl)-5-(methylsulfonamido)pyridin-2-yl)-1-methyl-1H-1,2,3-triazol-5-yl)carbamate], the concentration for a half-maximal effect (EC50) stood at 1.05 µM. `Cc1nc(-c2nnn(C)c2NC(=O)O[C@H](C)c2cccc(F)c2)ccc1NS(=O)(=O)C(C)C` [Compound 105, (R)-1-(3-fluoro-phenyl)ethyl(1-methyl-4-(6-methyl-5-((1-methylethyl)sulfonamido)pyridin-2-yl)-1H-1,2,3-triazol-5-yl)carbamate]: the EC50 was determined as 0.278 µM.

In the case of `Cc1nc(-c2nnn(C)c2NC(=O)OCc2cc(F)ccc2F)ccc1NS(C)(=O)=O` [Compound 36, 2,5-difluorobenzyl (1-methyl-4-(6-methyl-5-(methylsulfonamido)pyridin-2-yl)-1H-1,2,3-triazol-5-yl)carbamate], the EC50 amounted to 0.22 µM. Regarding `Cc1nc(-c2nnn(C)c2NC(=O)OC(C)c2ccncc2Cl)ccc1NS(C)(=O)=O` (stereo not shown) [Compound 75, 1-(3-chloropyridin-4-yl)ethyl (1-methyl-4-(6-methyl-5-(methylsulfonamido)pyridin-2-yl)-1H-1,2,3-triazol-5-yl)carbamate], the EC50 was 0.155 µM. Turning to `C[C@@H](OC(=O)Nc1c(-c2ccc(NS(C)(=O)=O)cn2)nnn1C)c1cc(F)ncc1F` [Compound 117, (R)-1-(2,5-difluoropyridin-4-yl)ethyl (1-methyl-4-(5-(methylsulfonamido)pyridin-2-yl)-1H-1,2,3-triazol-5-yl)carbamate], the concentration giving a half-maximal response (EC50) stood at 0.218 µM. For the molecule `Cc1nc(-c2nnn(C)c2NC(=O)OC(C)c2ccnc(F)c2Cl)ccc1NS(C)(=O)=O` (stereo not shown) [Compound 77, 1-(3-chloro-2-fluoropyridin-4-yl)ethyl (1-methyl-4-(6-methyl-5-(methylsulfonamido)pyridin-2-yl)-1H-1,2,3-triazol-5-yl)carbamate], the EC50 was found to be 0.0792 µM. Turning to `Cc1nc(-c2nnn(C)c2NC(=O)OC(C2CCCCC2)C(F)(F)F)ccc1NS(C)(=O)=O` (stereo not shown) [Compound 48, 1-cyclohexyl-2,2,2-trifluoroethyl (1-methyl-4-(6-methyl-5-(methylsulfonamido)pyridin-2-yl)-1H-1,2,3-triazol-5-yl)carbamate], the EC50 worked out at 0.162 µM. As for `CCCCCCOC(=O)Nc1c(-c2ccc(NS(C)(=O)=O)c(C)n2)nnn1C` [Compound 31, hexyl (1-methyl-4-(6-methyl-5-(methylsulfonamido)pyridin-2-yl)-1H-1,2,3-triazol-5-yl)carbamate], the figure is 1.22 µM.

On to `Cc1nc(-c2nnn(C)c2NC(=O)OCCCC(C)C)ccc1NS(C)(=O)=O` [Compound 29, 4-methylpentyl (1-methyl-4-(6-methyl-5-(methylsulfonamido)pyridin-2-yl)-1H-1,2,3-triazol-5-yl)carbamate], for which the EC50 stood at 0.325 µM. Next, `C[C@@H](OC(=O)Nc1c(-c2ccc(NS(C)(=O)=O)c(F)n2)nnn1C)c1ccccc1` [Compound 3, (R)-1-phenylethyl (4-(6-fluoro-5-(methylsulfonamido)pyridin-2-yl)-1-methyl-1H-1,2,3-triazol-5-yl)carbamate]: 0.166 µM; `Cc1nc(-c2nnn(C)c2NC(=O)O[C@H](CF)c2cc(F)ccc2F)ccc1NS(C)(=O)=O` [Compound 45, (S)-1-(2,5-difluorophenyl)-2-fluoroethyl (1-methyl-4-(6-methyl-5-(methylsulfonamido)pyridin-2-yl)-1H-1,2,3-triazol-5-yl)carbamate]: 0.0558 µM. `Cc1nc(-c2nnn(C)c2NC(=O)N[C@@H](c2ccccc2)C(F)(F)F)ccc1NS(C)(=O)=O` [Compound 66, (S)-N-(2-methyl-6-(1-methyl-5-(3-(2,2,2-trifluoro-1-phenylethyl)ureido)-1H-1,2,3-triazol-4-yl)pyridin-3-yl)methanesulfonamide]: the concentration for a half-maximal effect (EC50) was 0.54 µM.

On to `Cc1nc(-c2nnn(C)c2NC(=O)OC(C)c2cnc(Cl)nc2Cl)ccc1NS(C)(=O)=O` (stereo not shown) [Compound 133, 1-(2,4-dichloropyrimidin-5-yl)ethyl (1-methyl-4-(6-methyl-5-(methylsulfonamido)pyridin-2-yl)-1H-1,2,3-triazol-5-yl)carbamate], for which the EC50 worked out at 1.7 µM. Take `C[C@@H](OC(=O)Nc1c(-c2ccc(NS(C)(=O)=O)cn2)nnn1C)c1cc(F)cnc1F` [Compound 114, (R)-1-(2,5-difluoropyridin-3-yl)ethyl (1-methyl-4-(5-(methylsulfonamido)pyridin-2-yl)-1H-1,2,3-triazol-5-yl)carbamate]: the EC50 came out at 0.0488 µM. Next, `CCc1ncccc1[C@@H](C)OC(=O)Nc1c(-c2ccc(NS(C)(=O)=O)c(C)n2)nnn1C` [Compound 151, (R)-1-(2-ethylpyridin-3-yl)ethyl (1-methyl-4-(6-methyl-5-(methylsulfonamido)pyridin-2-yl)-1H-1,2,3-triazol-5-yl)carbamate]: 0.588 µM. Next, `Cn1nnc(-c2ccc(NS(C)(=O)=O)cn2)c1NC(=O)OCc1cccc(Cl)c1` [Compound 20, 3-chlorobenzyl (1-methyl-4-(5-(methylsulfonamido)pyridin-2-yl)-1H-1,2,3-triazol-5-yl)carbamate]: 0.117 µM; `Cc1ccncc1C(C)OC(=O)Nc1c(-c2ccc(NS(C)(=O)=O)c(C)n2)nnn1C` (stereo not shown) [Compound 82, 1-(4-methylpyridin-3-yl)ethyl (1-methyl-4-(6-methyl-5-(methylsulfonamido)pyridin-2-yl)-1H-1,2,3-triazol-5-yl)carbamate]: 2.3 µM; `Cc1nc(-c2nnn(C)c2NC(=O)OC(C)c2cccnc2C)ccc1NS(C)(=O)=O` (stereo not shown) [Compound 81, 1-(2-methylpyridin-3-yl)ethyl (1-methyl-4-(6-methyl-5-(methylsulfonamido)pyridin-2-yl)-1H-1,2,3-triazol-5-yl)carbamate]: 0.876 µM.

In the case of `Cc1nc(-c2nnn(C)c2NC(=O)O[C@H](C)c2cc(Cl)ccc2F)ccc1NS(C)(=O)=O` [Compound 56, (R)-1-(5-chloro-2-fluorophenyl)ethyl (1-methyl-4-(6-methyl-5-(methylsulfonamido)pyridin-2-yl)-1H-1,2,3-triazol-5-yl)carbamate], the EC50 was 0.0599 µM.

Turning to `Cc1nc(-c2nnn(C)c2NC(=O)O[C@H](C)c2cccnc2C)ccc1NS(C)(=O)=O` [Compound 141, (R)-1-(2-methylpyridin-3-yl)ethyl (1-methyl-4-(6-methyl-5-(methylsulfonamido)pyridin-2-yl)-1H-1,2,3-triazol-5-yl)carbamate], the 50% effective concentration (EC50) was determined as 0.723 µM.

On to `CNS(=O)(=O)Nc1ccc(-c2nnn(C)c2NC(=O)O[C@H](C)c2cc(F)cnc2Cl)nc1` [Compound 162, (R)-1-(2-chloro-5-fluoropyridin-3-yl)ethyl (1-methyl-4-(5-((N-methylsulfamoyl)amino)pyridin-2-yl)-1H-1,2,3-triazol-5-yl)carbamate], for which the 50% effective concentration (EC50) is 0.0817 µM. As for `Cc1nc(-c2nnn(C)c2NC(=O)N[C@H](C)c2ccccc2)ccc1NS(C)(=O)=O` [Compound 64], the EC50 was determined as 2.74 µM. For the molecule `C[C@@H](OC(=O)Nc1c(-c2ccc(NS(C)(=O)=O)c(Cl)n2)nnn1C)c1cccnc1Cl` [Compound 154, (R)-1-(2-chloropyridin-3-yl)ethyl (4-(6-chloro-5-(methylsulfonamido)pyridin-2-yl)-1-methyl-1H-1,2,3-triazol-5-yl)carbamate], the concentration for a half-maximal effect (EC50) came to 0.278 µM. As for `Cc1nc(-c2nnn(C)c2NC(=O)O[C@H](C)c2ccc(F)nc2C)ccc1NS(C)(=O)=O` [Compound 143, (R)-1-(6-fluoro-2-methylpyridin-3-yl)ethyl (1-methyl-4-(6-methyl-5-(methylsulfonamido)pyridin-2-yl)-1H-1,2,3-triazol-5-yl)carbamate], the EC50 was determined as 0.33 µM. For `[2H]C([2H])([2H])N(c1ccc(-c2nnn(C)c2NC(=O)O[C@H](C)c2cccnc2Cl)nc1C)S(C)(=O)=O` [Compound 164, (R)-1-(2-chloropyridin-3-yl)ethyl (1-methyl-4-(6-methyl-5-(N-(methyl-d3)methylsulfonamido)pyridin-2-yl)-1H-1,2,3-triazol-5-yl)carbamate], the EC50 came out at 0.438 µM. Next, `Cc1nc(-c2nnn(C)c2NC(=O)O[C@H](C)c2cc(Br)cnc2F)ccc1NS(C)(=O)=O` [Compound 125, (R)-1-(5-bromo-2-fluoropyridin-3-yl)ethyl (1-methyl-4-(6-methyl-5-(methylsulfonamido)pyridin-2-yl)-1H-1,2,3-triazol-5-yl)carbamate]: 0.187 µM. As for `Cc1nc(-c2nnn(C)c2NC(=O)O[C@H](CF)c2ccccc2)ccc1NS(C)(=O)=O` [Compound 59, (S)-2-fluoro-1-phenylethyl (1-methyl-4-(6-methyl-5-(methylsulfonamido)pyridin-2-yl)-1H-1,2,3-triazol-5-yl)carbamate], the figure is 0.0377 µM; as for `Cc1ncc(Cl)cc1[C@@H](C)OC(=O)Nc1c(-c2ccc(NS(C)(=O)=O)cn2)nnn1C` [Compound 113, (R)-1-(5-chloro-2-methylpyridin-3-yl)ethyl (1-methyl-4-(5-(methylsulfonamido)pyridin-2-yl)-1H-1,2,3-triazol-5-yl)carbamate], 0.083 µM; as for `Cc1ccc(C)c([C@@H](C)OC(=O)Nc2c(-c3ccc(NS(C)(=O)=O)c(C)n3)nnn2C)c1` [Compound 27, (R)-1-(2,5-dimethylphenyl)ethyl (1-methyl-4-(6-methyl-5-(methylsulfonamido)pyridin-2-yl)-1H-1,2,3-triazol-5-yl)carbamate], 0.0577 µM. Next, `CNc1nc(-c2nnn(C)c2NC(=O)O[C@H](CF)c2ccccc2)ccc1NS(C)(=O)=O` [Compound 155, (S)-2-fluoro-1-phenylethyl (1-methyl-4-(6-(methylamino)-5-(methylsulfonamido)pyridin-2-yl)-1H-1,2,3-triazol-5-yl)carbamate]: 0.0847 µM; `Cc1nc(-c2nnn(C)c2NC(=O)O[C@H](C)c2cc(F)cnc2Cl)ccc1NS(C)(=O)=O` [Compound 74, (R)-1-(2-chloro-5-fluoropyridin-3-yl)ethyl (1-methyl-4-(6-methyl-5-(methylsulfonamido)pyridin-2-yl)-1H-1,2,3-triazol-5-yl)carbamate]: 0.11 µM.

The record behind these values is patent US11548871B2, “Triazole carbamate pyridyl sulfonamides as LPA receptor antagonists and uses thereof” (Gilead Sciences, Inc., priority 2019, dated 2023).
